Source: patent US5885815A, “Candida isoleucyl-tRNA synthetase proteins, nucleic acids and strains comprising same” (priority 1996, dated 1999)

Legend:
CC[C@H](C)[C@H](N)C(=O)O = assay: Aminoacylation (charging) assay for Km determination, purified GST-IleRS fusion; type: biochemical, Candida albicans; conditions: other: crude yeast tRNA, 2 to 32 μM [3H]isoleucine, 25° C., spread printed in b267: ±4.8 μM
Method: (§1) The purified recombinant GST-fusion protein and the product after thrombin cleavage of the GST-fusion protein were tested for their charging activities. Charging assays were based on the procedure of Shepard et al. (Proc. Natl. Acad. Sci. USA 89:9964-68 (1992)). Unless otherwise stated, a typical 50 μl reaction was carried out at 25° C. and contained 4 mM ATP, 20 μM of [^3 H]isoleucine, 90 μM crude tRNA from E. coli (Sigma) or brewer's yeast (Boehringer Mannheim), 10 μM KF, 50 mM HEPES, pH 7.5, 10 mM MgCl2, 10 mM DTT or β-mercaptoethanol and 30 mM NH4 Cl. Purified enzyme was diluted in 100 mM HEPES, pH 7.5, 20 mM DTT and 0.1 mg/ml BSA.
(§2) Reactions were started by the addition of enzyme to the reaction mixture preincubated at 25° C. At various time intervals, 10 μl of the reaction mix was spotted on 3MM Whatman filter circles which were then immersed in ice cold 5% TCA. After three washes in ice cold 5% TCA (at least 15 minutes each), the filters were rinsed once with cold ethanol, once with ether, and air dried. The radioactivity was quantitated by counting the filters in a table top scintillation counter (Packard) in the presence of scintillation fluid (Betafluor; National Diagnostics).
(§3) For determination of Km, various concentrations of one substrate (ATP, amino acid, or tRNA) were used while the other two substrates were kept at saturating concentrations. To test the effect of temperature, the reactions were incubated at 25°, 30°, 37° and 42° C. The Bradford assay was used for determination of total protein. The proportion of active enzyme was calculated by monitoring the formation of the amino acid-adenylate:enzyme complex using a nitrocellulose filter binding assay in the presence of various dilutions of enzyme preparation. A 50 μl reaction contained 1 mM ATP, 1 unit of pyrophosphatase, 50 mM Tris-HCl, pH 5.8, 10 mM MgCl2, 30 mM KCl, 20 mM DTT, 40 μM of radioactively labeled amino acid, and diluted enzyme. […]

[1] = molecular target: T1, Candida albicans isoleucyl-tRNA synthetase, N-terminal GST-fusion protein (GST-IleRS) encoded by pQB83CAIRS-1, produced in S. cerevisiae, SEQ ID NO:2 (Candida albicans, UniProt Q59RI1, S1065L/S390L); assay: as above; type: biochemical; conditions: isoleucine varied; 1.09 nM active enzyme; crude yeast tRNA
T1 construct: thrombin-cleavable), pQB83CAIRS-1, expressed in S. cerevisiae QBY3; CTG codons 390 and 1065 read as Leu by host
T1 sequence (Q59RI1 whole entry S390L/N691S/E755D/I1040V/S1065L, the tested form may be a part): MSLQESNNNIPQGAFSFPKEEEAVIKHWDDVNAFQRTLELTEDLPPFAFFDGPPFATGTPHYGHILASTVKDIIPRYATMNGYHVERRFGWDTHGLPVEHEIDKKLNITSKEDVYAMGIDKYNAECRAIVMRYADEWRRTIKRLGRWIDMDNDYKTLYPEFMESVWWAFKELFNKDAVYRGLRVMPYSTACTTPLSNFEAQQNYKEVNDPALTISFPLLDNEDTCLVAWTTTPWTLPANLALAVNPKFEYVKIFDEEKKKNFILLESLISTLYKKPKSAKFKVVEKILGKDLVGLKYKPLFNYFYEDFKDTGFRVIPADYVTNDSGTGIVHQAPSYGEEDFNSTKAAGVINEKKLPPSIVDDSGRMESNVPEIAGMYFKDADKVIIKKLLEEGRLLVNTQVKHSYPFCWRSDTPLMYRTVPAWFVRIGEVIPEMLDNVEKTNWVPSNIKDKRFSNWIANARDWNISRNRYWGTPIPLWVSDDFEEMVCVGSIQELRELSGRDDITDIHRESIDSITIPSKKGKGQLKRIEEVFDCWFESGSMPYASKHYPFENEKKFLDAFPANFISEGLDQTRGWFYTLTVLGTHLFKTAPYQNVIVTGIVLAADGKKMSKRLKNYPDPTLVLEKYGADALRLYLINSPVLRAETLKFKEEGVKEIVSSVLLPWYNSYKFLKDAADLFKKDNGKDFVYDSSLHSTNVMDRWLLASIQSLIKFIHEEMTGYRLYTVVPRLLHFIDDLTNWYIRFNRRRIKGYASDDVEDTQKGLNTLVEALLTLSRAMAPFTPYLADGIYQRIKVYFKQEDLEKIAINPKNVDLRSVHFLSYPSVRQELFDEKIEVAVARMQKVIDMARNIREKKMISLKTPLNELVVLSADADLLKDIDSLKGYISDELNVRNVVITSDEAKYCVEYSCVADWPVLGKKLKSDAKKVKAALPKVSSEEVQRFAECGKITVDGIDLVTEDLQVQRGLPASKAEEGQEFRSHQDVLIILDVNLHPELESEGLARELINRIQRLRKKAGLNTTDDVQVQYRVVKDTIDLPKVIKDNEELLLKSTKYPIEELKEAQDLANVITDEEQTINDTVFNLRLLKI
Method: as §1, §2, §3

Compound | Km (CC[C@H](C)[C@H](N)C(=O)O) | Vmax [1] | kcat [1]
Candida albicans isoleucyl-tRNA synthetase, N-terminal GST-fusion protein (GST-IleRS) encoded by pQB83CAIRS-1, produced in S. cerevisiae, SEQ ID NO:2 (Candida albicans SC5314; S1065L/S390L) | 17 µM |  | 
CC[C@H](C)[C@H](N)C(=O)O [isoleucine] |  | 4 ± 0.5 nM/s | 3.7±0.5 per sec
